Consider 53 compounds from ChEMBL document CHEMBL1811764, “Structure-activity studies of RNA-binding oxazolidinone derivatives” (Bioorg Med Chem Lett, 2011).

For assay [1], the system named is Nucleic Acid. Briefly: Binding affinity to Bacillus subtilis AM1A C11U antiterminator model RNA variant assessed as increase in fluorescence by FRET assay relative to control. It is filed as nucleic-acid assay. The arrangement: concentration or dose not given beside the values.
Assay [2] concerns Nucleic Acid. Briefly: Binding affinity to Bacillus subtilis AM1A antiterminator model RNA assessed as increase in fluorescence at 10 uM by FRET assay relative to control. Type of assay: nucleic-acid assay.

Regarding `O=C(COc1ccccc1)OC[C@H]1OC(=O)N[C@@H]1CN1CCN(c2ccccc2)CC1`, the figures for the Activity in the assay on Nucleic Acid [1] and with Nucleic Acid [2] were 9.4% and 9.5%, respectively.

For `CCCCCCNC(=O)OC[C@H]1OC(=O)N[C@@H]1CN1CCN(c2ccccc2)CC1`, the Activity in the assay on Nucleic Acid [1] was 23.7%; in the assay on Nucleic Acid [2], 17.4%.

For `O=C1N[C@H](CN2CCN(c3ccccc3)CC2)[C@@H](COC(=O)c2ccccc2I)O1`, the Activity with Nucleic Acid [1] came to 22.4%; in the assay on Nucleic Acid [2] it was 28.6%.

Take `O=C(Nc1cccc([N+](=O)[O-])c1)OC[C@H]1OC(=O)N[C@@H]1CN1CCN(c2ccccc2)CC1`: the Activity was 0.2% in the assay with Nucleic Acid [1] and -1.1% with Nucleic Acid [2].

Take `O=C1N[C@H](CN2CCN(c3ccccc3)CC2)[C@@H](COC(=O)c2ccccc2Cl)O1`: the Activity in the assay with Nucleic Acid [1] worked out at 28.8%; in the assay with Nucleic Acid [2], 30.4%.

With `O=C(CCCCCc1ccccc1)OC[C@H]1OC(=O)N[C@@H]1CN1CCN(c2ccccc2)CC1`, the Activity in the assay with Nucleic Acid [1] amounted to 30.9%; with Nucleic Acid [2] it was 32.6%.

With `O=C(Cc1ccc(Cl)c(Cl)c1)OC[C@H]1OC(=O)N[C@@H]1CN1CCN(c2ccccc2)CC1`, the values for the Activity in the assay with Nucleic Acid [1] and in the assay on Nucleic Acid [2] were 28.9% and 29.1%, respectively.

Regarding `Cc1cccc(NC(=O)OC[C@H]2OC(=O)N[C@@H]2CN2CCN(c3ccccc3)CC2)c1`, the Activity in the assay on Nucleic Acid [1] is 26.7%; in the assay on Nucleic Acid [2], 16.8%.

For `O=C(Cc1ccc([N+](=O)[O-])cc1)OC[C@H]1OC(=O)N[C@@H]1CN1CCN(c2ccccc2)CC1`, the Activity in the assay on Nucleic Acid [1] was determined as 16.5%; in the assay with Nucleic Acid [2], 9.1%.

As to `O=C(Nc1ccc([N+](=O)[O-])cc1)OC[C@H]1OC(=O)N[C@@H]1CN1CCN(c2ccccc2)CC1`, the Activity in the assay with Nucleic Acid [1] was -4.9%; with Nucleic Acid [2], -1.8%.

Consider `N#Cc1ccccc1C(=O)OC[C@H]1OC(=O)N[C@@H]1CN1CCN(c2ccccc2)CC1`, for which the Activity in the assay on Nucleic Acid [1] came to 16.7%; in the assay with Nucleic Acid [2] it was 7.3%.

Regarding `O=C(CCc1ccccc1)OC[C@H]1OC(=O)N[C@@H]1CN1CCN(c2ccccc2)CC1`, the Activity in the assay with Nucleic Acid [1] was 26.1%; with Nucleic Acid [2], 20.6%.

As for `CCCNC(=O)OC[C@H]1OC(=O)N[C@@H]1CN1CCN(c2ccccc2)CC1`, the values for the Activity in the assay on Nucleic Acid [1] and in the assay with Nucleic Acid [2] were 9.6% and 10.3%, respectively.

Turning to `COc1cccc(CC(=O)OC[C@H]2OC(=O)N[C@@H]2CN2CCN(c3ccccc3)CC2)c1`, the Activity in the assay on Nucleic Acid [1] came to 19.6%; in the assay on Nucleic Acid [2], 18.9%.

With `O=C(CCCC1CCCCC1)OC[C@H]1OC(=O)N[C@@H]1CN1CCN(c2ccccc2)CC1`, the Activity in the assay with Nucleic Acid [1] is 29%; in the assay on Nucleic Acid [2], 31.8%.

As for `O=C(Nc1ccc(Cl)c(Cl)c1)OC[C@H]1OC(=O)N[C@@H]1CN1CCN(c2ccccc2)CC1`, the Activity in the assay on Nucleic Acid [1] amounted to 14.7%; in the assay with Nucleic Acid [2], 8.9%.

Take `CCCCCC(=O)OC[C@H]1OC(=O)N[C@@H]1CN1CCN(c2ccccc2)CC1`: the values for the Activity in the assay with Nucleic Acid [1] and with Nucleic Acid [2] were 21% and 15.5%, respectively.

Take `O=C1N[C@H](CN2CCN(c3ccccc3)CC2)[C@@H](COC(=O)c2ccc(Cl)cc2)O1`: the Activity is 22.8% with Nucleic Acid [1] and 29.1% in the assay on Nucleic Acid [2].

Take `O=C(Cc1ccc(-c2ccccc2)cc1)OC[C@H]1OC(=O)N[C@@H]1CN1CCN(c2ccccc2)CC1`: the values for the Activity in the assay with Nucleic Acid [1] and in the assay with Nucleic Acid [2] were 22.3% and 25.3%, respectively.

For `CCCCCc1ccc(NC(=O)OC[C@H]2OC(=O)N[C@@H]2CN2CCN(c3ccccc3)CC2)cc1`, the Activity amounted to 11.1% in the assay on Nucleic Acid [1] and 10.6% in the assay with Nucleic Acid [2].

Take `O=C1N[C@H](CN2CCN(c3ccccc3)CC2)[C@@H](COC(=O)Oc2ccccc2)O1`: the Activity in the assay with Nucleic Acid [1] was 21.3%; with Nucleic Acid [2], 12.4%.

Turning to `CN(C)c1cccc(C(=O)OC[C@H]2OC(=O)N[C@@H]2CN2CCN(c3ccccc3)CC2)c1`, the Activity in the assay with Nucleic Acid [1] came to 27.1%; in the assay with Nucleic Acid [2], 24.6%.

With `COc1ccc(CC(=O)OC[C@H]2OC(=O)N[C@@H]2CN2CCN(c3ccccc3)CC2)cc1`, the Activity stood at 18.8% in the assay with Nucleic Acid [1] and 13.7% in the assay with Nucleic Acid [2].

`CCCCCCCC(=O)OC[C@H]1OC(=O)N[C@@H]1CN1CCN(c2ccccc2)CC1`: the Activity in the assay on Nucleic Acid [1] turned out to be 25.4%; with Nucleic Acid [2] it was 18.1%.

Turning to `O=C1N[C@H](CN2CCN(c3ccccc3)CC2)[C@@H](COC(=O)c2ccccc2F)O1`, the Activity in the assay on Nucleic Acid [1] was 20.4%; in the assay with Nucleic Acid [2] it was 18.5%.

On to `CCc1ccc(NC(=O)OC[C@H]2OC(=O)N[C@@H]2CN2CCN(c3ccccc3)CC2)cc1`, for which the values for the Activity in the assay on Nucleic Acid [1] and in the assay on Nucleic Acid [2] were 19.1% and 18.3%, respectively.

For `O=C1N[C@H](CN2CCN(c3ccccc3)CC2)[C@@H](COC(=O)c2ccc([N+](=O)[O-])cc2)O1`, the figures for the Activity with Nucleic Acid [1] and in the assay with Nucleic Acid [2] were 15.2% and 13.1%, respectively.

Take `CC(C)(C)OC(=O)NCCCCC(=O)OC[C@H]1OC(=O)N[C@@H]1CN1CCN(c2ccccc2)CC1`: the Activity in the assay with Nucleic Acid [1] worked out at 27.7%; in the assay with Nucleic Acid [2] it was 29.4%.

Take `O=C1N[C@H](CN2CCN(c3ccccc3)CC2)[C@@H](COC(=O)c2cc(OCc3ccccc3)c(OCc3ccccc3)c(OCc3ccccc3)c2)O1`: the Activity with Nucleic Acid [1] was 18.6%; in the assay with Nucleic Acid [2], 14.3%.

On to `COc1cccc(C(=O)OC[C@H]2OC(=O)N[C@@H]2CN2CCN(c3ccccc3)CC2)c1`, for which the Activity with Nucleic Acid [1] worked out at 24.7%; in the assay on Nucleic Acid [2], 23.8%.

In the case of `O=C(Cc1ccccc1)OC[C@H]1OC(=O)N[C@@H]1CN1CCN(c2ccccc2)CC1`, the Activity came out at 15.9% in the assay with Nucleic Acid [1] and 8.5% in the assay on Nucleic Acid [2].

As for `CC(C)(C)OC(=O)N[C@H](C(=O)OC[C@H]1OC(=O)N[C@@H]1CN1CCN(c2ccccc2)CC1)c1ccccc1`, the Activity in the assay with Nucleic Acid [1] stood at 19.4%; in the assay with Nucleic Acid [2], 26.7%.

As to `COc1ccc(NC(=O)OC[C@H]2OC(=O)N[C@@H]2CN2CCN(c3ccccc3)CC2)cc1`, the Activity with Nucleic Acid [1] turned out to be 7.7%; with Nucleic Acid [2], 7.8%.

For `O=C1N[C@H](CN2CCN(c3ccccc3)CC2)[C@@H](COC(=O)c2c(Cl)cccc2Cl)O1`, the Activity turned out to be 16.2% in the assay with Nucleic Acid [1] and 15.3% in the assay on Nucleic Acid [2].

In the case of `CCCC(=O)OC[C@H]1OC(=O)N[C@@H]1CN1CCN(c2ccccc2)CC1`, the values for the Activity with Nucleic Acid [1] and with Nucleic Acid [2] were 19.7% and 10.1%, respectively.

As for `O=C1N[C@H](CN2CCN(c3ccccc3)CC2)[C@@H](COC(=O)C2CCCCC2)O1`, the results for the Activity with Nucleic Acid [1] and in the assay on Nucleic Acid [2] were 20.7% and 19.5%, respectively.

As to `CC(C)CC(=O)OC[C@H]1OC(=O)N[C@@H]1CN1CCN(c2ccccc2)CC1`, the results for the Activity with Nucleic Acid [1] and in the assay on Nucleic Acid [2] were 14% and 9.5%, respectively.

Take `CC(C)(C)C(=O)OC[C@H]1OC(=O)N[C@@H]1CN1CCN(c2ccccc2)CC1`: the Activity in the assay with Nucleic Acid [1] is 13.2%; with Nucleic Acid [2], 7.1%.

On to `CC(C)(C)OC(=O)N[C@@H](C(=O)OC[C@H]1OC(=O)N[C@@H]1CN1CCN(c2ccccc2)CC1)c1ccccc1`, for which the Activity was found to be 42.6% in the assay with Nucleic Acid [1] and 39.6% in the assay on Nucleic Acid [2].

For the compound `Cc1cccc(C(C)(C)C)c1NC(=O)OC[C@H]1OC(=O)N[C@@H]1CN1CCN(c2ccccc2)CC1`, the values for the Activity in the assay on Nucleic Acid [1] and in the assay on Nucleic Acid [2] were 15.4% and 14.8%, respectively.

Take `O=C(CC1CC2CCC1C2)OC[C@H]1OC(=O)N[C@@H]1CN1CCN(c2ccccc2)CC1` (stereo partly specified): the Activity in the assay on Nucleic Acid [1] was found to be 27.4%; in the assay with Nucleic Acid [2], 29.5%.

`O=C(NCc1ccccc1)OC[C@H]1OC(=O)N[C@@H]1CN1CCN(c2ccccc2)CC1`: the Activity in the assay with Nucleic Acid [1] turned out to be 11.7%; in the assay on Nucleic Acid [2], 6.1%.

With `O=C1N[C@H](CN2CCN(c3ccccc3)CC2)[C@@H](COC(=O)c2ccccc2)O1`, the figures for the Activity in the assay with Nucleic Acid [1] and in the assay on Nucleic Acid [2] were 18.6% and 14.8%, respectively.

For the compound `CC(=O)c1ccc(NC(=O)OC[C@H]2OC(=O)N[C@@H]2CN2CCN(c3ccccc3)CC2)cc1`, the Activity worked out at 13.4% in the assay with Nucleic Acid [1] and 7.7% in the assay with Nucleic Acid [2].

In the case of `O=C1N[C@H](CN2CCN(c3ccccc3)CC2)[C@@H](COC(=O)c2ccco2)O1`, the Activity with Nucleic Acid [1] worked out at 14.7%; in the assay with Nucleic Acid [2] it was 6.4%.

For `O=C(Nc1ccccc1)OC[C@H]1OC(=O)N[C@@H]1CN1CCN(c2ccccc2)CC1`, the Activity in the assay with Nucleic Acid [1] was determined as 11.2%; in the assay with Nucleic Acid [2] it was 8.4%.

With `CC(C)(C)NC(=O)OC[C@H]1OC(=O)N[C@@H]1CN1CCN(c2ccccc2)CC1`, the Activity with Nucleic Acid [1] came out at 8.7%; in the assay on Nucleic Acid [2], 8.9%.

With `Cc1c(C(=O)OC[C@H]2OC(=O)N[C@@H]2CN2CCN(c3ccccc3)CC2)cccc1[N+](=O)[O-]`, the results for the Activity in the assay on Nucleic Acid [1] and in the assay on Nucleic Acid [2] were 24.5% and 23.3%, respectively.

As to `CC(C)=CCCC(C)CC(=O)OC[C@H]1OC(=O)N[C@@H]1CN1CCN(c2ccccc2)CC1` (stereo partly specified), the Activity is 42.4% in the assay with Nucleic Acid [1] and 38.9% with Nucleic Acid [2].

On to `Cc1ccc(C(=O)OC[C@H]2OC(=O)N[C@@H]2CN2CCN(c3ccccc3)CC2)cc1`, for which the Activity in the assay with Nucleic Acid [1] amounted to 27.5%; in the assay on Nucleic Acid [2] it was 27.4%.

Take `CCCCNC(=O)OC[C@H]1OC(=O)N[C@@H]1CN1CCN(c2ccccc2)CC1`: the Activity with Nucleic Acid [1] amounted to 14%; with Nucleic Acid [2] it was 10.5%.

As to `CC(C)CCC(=O)OC[C@H]1OC(=O)N[C@@H]1CN1CCN(c2ccccc2)CC1`, the Activity in the assay on Nucleic Acid [1] came to 20.2%; with Nucleic Acid [2] it was 15%.

In the case of `O=C1N[C@H](CN2CCN(c3ccccc3)CC2)[C@@H](COC(=O)c2ccccc2Oc2ccccc2)O1`, the Activity is 26.5% in the assay with Nucleic Acid [1] and 30.8% with Nucleic Acid [2].
